Eight compounds from patent publication US20160175634A1 (priority 2014, published 2016) can be followed below.

What all share (assay type): cell-based
The subject of test [1] is Glutathione-S transferase.
Test [2] concerns Homoprotocatechuate 2,3-dioxygenase.
Test [3] relates to Pseudomonas sp. NCIB 9816-4.
Test [4] has as its target T1, CAH (Moorella thermoacetica, UniProt Q2RGM7).
T1 construct: expressed in transfected cells; host or cells: E. coli BL21(DE3)(pET28b+CAH), IPTG-induced
T1 sequence (Q2RGM7 1-367): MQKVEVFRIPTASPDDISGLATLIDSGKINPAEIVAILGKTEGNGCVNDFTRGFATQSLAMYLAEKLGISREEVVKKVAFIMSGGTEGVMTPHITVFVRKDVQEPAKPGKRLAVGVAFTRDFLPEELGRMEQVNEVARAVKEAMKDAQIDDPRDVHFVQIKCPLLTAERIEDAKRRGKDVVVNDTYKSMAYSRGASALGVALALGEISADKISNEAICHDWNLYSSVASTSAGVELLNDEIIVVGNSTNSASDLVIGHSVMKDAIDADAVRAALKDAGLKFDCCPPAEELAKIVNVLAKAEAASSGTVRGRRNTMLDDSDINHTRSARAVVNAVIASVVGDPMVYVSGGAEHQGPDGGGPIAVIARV

In test [5] the target is T1, CAH. This is another data set of the same source.
Test [6] addresses T2, AtzA (Pseudomonas sp., UniProt P72156).
T2 construct: expressed in transfected cells; host or cells: E. coli DH5α (pMD4)
T2 sequence (P72156 1-474): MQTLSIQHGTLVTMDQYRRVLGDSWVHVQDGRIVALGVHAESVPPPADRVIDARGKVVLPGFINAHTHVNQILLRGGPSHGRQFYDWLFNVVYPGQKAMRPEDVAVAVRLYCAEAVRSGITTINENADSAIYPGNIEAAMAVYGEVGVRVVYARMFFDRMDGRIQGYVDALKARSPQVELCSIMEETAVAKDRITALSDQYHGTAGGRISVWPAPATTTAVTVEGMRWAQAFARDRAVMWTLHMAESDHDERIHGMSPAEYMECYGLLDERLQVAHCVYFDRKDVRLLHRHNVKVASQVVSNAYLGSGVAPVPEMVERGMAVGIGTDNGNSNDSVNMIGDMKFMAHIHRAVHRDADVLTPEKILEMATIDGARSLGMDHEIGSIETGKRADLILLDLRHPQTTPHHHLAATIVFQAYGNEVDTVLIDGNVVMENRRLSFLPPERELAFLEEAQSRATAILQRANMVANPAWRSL

Test [7] addresses T2, AtzA. This is another data set of the same source.
The next test has as its system Escherichia coli DH5α.
For another test, the target named is T3, Azo reductase (Staphylococcus aureus, UniProt Q50H63).
T3 construct: expressed in transfected cells; host or cells: E. coli DH5 alpha
T3 sequence (Q50H63 1-188): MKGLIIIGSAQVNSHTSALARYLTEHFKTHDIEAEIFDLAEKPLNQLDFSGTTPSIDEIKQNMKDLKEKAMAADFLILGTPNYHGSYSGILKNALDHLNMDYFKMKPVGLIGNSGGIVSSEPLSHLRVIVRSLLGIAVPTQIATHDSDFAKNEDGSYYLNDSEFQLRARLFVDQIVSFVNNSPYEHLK

Values joined by “and” are separate entries in the source; they are usually repeats but may differ in a detail not shown here. Equal values may be shown once. Where a name gives a salt, the structure may show the parent alone.

For the compound `O=[N+]([O-])c1ccc(Cl)c([N+](=O)[O-])c1` [1-chloro2,4-dinitrobenzene], the “Ratio (free cells/gel)” value in test [1] was about 3.8.
Consider `CC(=O)Oc1ccc(O)c(O)c1` [3,4 Dihydroxypheny acetate], for which the “Ratio (free cells/gel)” value in [2] is 1-2.5.
Take `Oc1ccccc1` [Phenol]: the “removal of single substrate from hydrocarbon solution (in words)” value in test [3] is on record as “very low removal”.
For the compound `O=c1[nH]c(=O)[nH]c(=O)[nH]1` [Cyanuric acid], the “decrease of initial rate of cyanuric acid degradation” value on CAH [4] is “approximately 50%”. Moreover, the cyanuric acid level result at CAH [4] (15 h) was “undetectable levels”. Besides, on CAH [5], the cyanuric acid removed result was “over 7,000 M” and the “degradation of cyanuric acid (in words)” value is reported as “complete degradation”.
On to `Cc1ccc(O)cc1` [p-Cresol], for which the “removal of single substrate from hydrocarbon solution (in words)” value in [3] is “completely degraded”.
As for `CCNc1nc(Cl)nc(NC(C)C)n1` [Atrazine, 2-chloro-4-ethylamino-6-isopropylamino-1,3,5-triazine], at AtzA [6], the “atrazine removal, solutions left for 24 h” value is given as “complete atrazine removal” and the “increase of degradation rate” value is “three-folds”. For the same compound, on AtzA [7], the “enhancement of atrazine degradation rates” value is reported as “threefold”; the “rate of atrazine removal, 75% phenyl gel compared to Teos gel” value is listed as “approximately 3 fold”; the “rate of hydroxyatrazine formation, 75% phenyl gel compared to Teos gel” value was “approximately 3 fold”.
As to `c1ccc2ccccc2c1` [Naphthalene], in test [3], the “concentration (below detection limit)” value is under 1 nM and the “concentration left in the bulk solution (C/C0)” value was about 25%. Also, in the test with Escherichia coli DH5α, the final concentration is 215.39 ± 7.23 µM; the remaining concentration was 164.26 ± 8.90 µM and 107.67 ± 19.69 µM.
As for `CN(C)c1ccc(/N=N/c2ccccc2C(=O)O)cc1` [methyl red sodium salt], at Azo reductase, the “Ratio (free cells/gel)” value is 1.8-3.7.
